# From paper PMC12372887, “Mechanism and cellular actions of the potent AMPK inhibitor BAY-3827” (Science Advances, 2025)
# Experiments:
# Test in all cases: Kinase panel (140 human kinases)
# Type in all cases: biochemical
# DAPK1 = DAPK1 (Homo sapiens, UniProt P53355)
# In short: (§1)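 Radioactive [γ-^33P]ATP filter-binding assay, run in duplicate; compounds tested at 0.1 μM and at 1 μM (BAY-3827). ATP at 5, 20 or 50 μM, chosen at or below each enzyme's Km for ATP. Values are mean remaining kinase activity (%) with SD.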
# TBK1 = biological target: T1, TBK1 (Homo sapiens, UniProt Q9UHD2)
# T1 sequence (Q9UHD2 1-729): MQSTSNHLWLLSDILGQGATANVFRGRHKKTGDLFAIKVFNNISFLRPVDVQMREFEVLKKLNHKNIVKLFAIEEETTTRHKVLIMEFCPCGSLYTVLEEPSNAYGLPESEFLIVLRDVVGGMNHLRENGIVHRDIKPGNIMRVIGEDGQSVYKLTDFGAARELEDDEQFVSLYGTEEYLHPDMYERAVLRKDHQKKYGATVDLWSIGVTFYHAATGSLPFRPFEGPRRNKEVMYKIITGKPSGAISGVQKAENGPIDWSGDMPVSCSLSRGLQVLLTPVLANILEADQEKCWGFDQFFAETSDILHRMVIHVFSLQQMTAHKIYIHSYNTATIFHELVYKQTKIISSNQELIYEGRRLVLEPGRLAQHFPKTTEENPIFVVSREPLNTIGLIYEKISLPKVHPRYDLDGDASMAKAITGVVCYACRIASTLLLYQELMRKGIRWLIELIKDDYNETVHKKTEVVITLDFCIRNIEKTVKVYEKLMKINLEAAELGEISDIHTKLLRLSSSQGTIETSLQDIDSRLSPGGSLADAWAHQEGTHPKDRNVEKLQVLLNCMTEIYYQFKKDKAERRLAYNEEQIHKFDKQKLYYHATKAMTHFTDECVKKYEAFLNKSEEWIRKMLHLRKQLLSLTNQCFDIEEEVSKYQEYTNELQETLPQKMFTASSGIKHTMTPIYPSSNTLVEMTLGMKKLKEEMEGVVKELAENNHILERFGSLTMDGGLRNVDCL
# In short: as §1
# MST2 = MST2 (Homo sapiens, UniProt Q13188)
# In short: as §1
# IRAK4 = biological target: T2, IRAK4 (Homo sapiens, UniProt Q9NWZ3)
# T2 sequence (Q9NWZ3 1-460): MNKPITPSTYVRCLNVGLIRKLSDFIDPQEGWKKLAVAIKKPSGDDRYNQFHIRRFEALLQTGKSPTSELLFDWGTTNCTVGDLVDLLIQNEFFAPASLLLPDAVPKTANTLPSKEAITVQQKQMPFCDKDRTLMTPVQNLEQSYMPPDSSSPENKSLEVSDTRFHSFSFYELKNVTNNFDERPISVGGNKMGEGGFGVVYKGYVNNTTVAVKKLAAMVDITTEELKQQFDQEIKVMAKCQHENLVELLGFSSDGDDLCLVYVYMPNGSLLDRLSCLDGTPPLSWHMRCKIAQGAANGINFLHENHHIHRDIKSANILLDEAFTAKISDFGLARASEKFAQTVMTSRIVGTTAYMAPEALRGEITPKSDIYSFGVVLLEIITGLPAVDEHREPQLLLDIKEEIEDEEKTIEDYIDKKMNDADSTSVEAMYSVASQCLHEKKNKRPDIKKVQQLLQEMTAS
# In short: as §1
# PINK = PINK (Tribolium castaneum, UniProt D6WMX4)
# In short: as §1
# DYRK2 = DYRK2 (Homo sapiens, UniProt Q92630)
# Chain of DYRK2 (Q92630 whole entry): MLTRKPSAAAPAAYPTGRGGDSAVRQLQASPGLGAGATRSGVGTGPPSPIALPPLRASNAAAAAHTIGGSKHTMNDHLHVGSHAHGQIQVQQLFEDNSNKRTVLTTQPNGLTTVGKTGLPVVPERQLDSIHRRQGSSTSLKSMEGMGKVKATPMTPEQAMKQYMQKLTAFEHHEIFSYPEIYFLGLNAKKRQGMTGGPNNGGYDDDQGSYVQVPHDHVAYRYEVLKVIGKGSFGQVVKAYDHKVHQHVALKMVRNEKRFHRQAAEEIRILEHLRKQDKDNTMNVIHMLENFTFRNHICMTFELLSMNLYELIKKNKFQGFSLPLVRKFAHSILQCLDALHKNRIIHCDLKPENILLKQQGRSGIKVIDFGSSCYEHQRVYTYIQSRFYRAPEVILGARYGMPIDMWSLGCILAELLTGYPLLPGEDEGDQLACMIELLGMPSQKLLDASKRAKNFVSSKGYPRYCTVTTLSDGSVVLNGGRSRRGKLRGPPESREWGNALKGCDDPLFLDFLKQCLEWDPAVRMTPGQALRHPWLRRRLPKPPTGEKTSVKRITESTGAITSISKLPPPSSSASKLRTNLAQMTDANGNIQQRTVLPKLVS
# In short: as §1
# IR = IR (Homo sapiens, UniProt P06213)
# Chain of IR (P06213 28-1382): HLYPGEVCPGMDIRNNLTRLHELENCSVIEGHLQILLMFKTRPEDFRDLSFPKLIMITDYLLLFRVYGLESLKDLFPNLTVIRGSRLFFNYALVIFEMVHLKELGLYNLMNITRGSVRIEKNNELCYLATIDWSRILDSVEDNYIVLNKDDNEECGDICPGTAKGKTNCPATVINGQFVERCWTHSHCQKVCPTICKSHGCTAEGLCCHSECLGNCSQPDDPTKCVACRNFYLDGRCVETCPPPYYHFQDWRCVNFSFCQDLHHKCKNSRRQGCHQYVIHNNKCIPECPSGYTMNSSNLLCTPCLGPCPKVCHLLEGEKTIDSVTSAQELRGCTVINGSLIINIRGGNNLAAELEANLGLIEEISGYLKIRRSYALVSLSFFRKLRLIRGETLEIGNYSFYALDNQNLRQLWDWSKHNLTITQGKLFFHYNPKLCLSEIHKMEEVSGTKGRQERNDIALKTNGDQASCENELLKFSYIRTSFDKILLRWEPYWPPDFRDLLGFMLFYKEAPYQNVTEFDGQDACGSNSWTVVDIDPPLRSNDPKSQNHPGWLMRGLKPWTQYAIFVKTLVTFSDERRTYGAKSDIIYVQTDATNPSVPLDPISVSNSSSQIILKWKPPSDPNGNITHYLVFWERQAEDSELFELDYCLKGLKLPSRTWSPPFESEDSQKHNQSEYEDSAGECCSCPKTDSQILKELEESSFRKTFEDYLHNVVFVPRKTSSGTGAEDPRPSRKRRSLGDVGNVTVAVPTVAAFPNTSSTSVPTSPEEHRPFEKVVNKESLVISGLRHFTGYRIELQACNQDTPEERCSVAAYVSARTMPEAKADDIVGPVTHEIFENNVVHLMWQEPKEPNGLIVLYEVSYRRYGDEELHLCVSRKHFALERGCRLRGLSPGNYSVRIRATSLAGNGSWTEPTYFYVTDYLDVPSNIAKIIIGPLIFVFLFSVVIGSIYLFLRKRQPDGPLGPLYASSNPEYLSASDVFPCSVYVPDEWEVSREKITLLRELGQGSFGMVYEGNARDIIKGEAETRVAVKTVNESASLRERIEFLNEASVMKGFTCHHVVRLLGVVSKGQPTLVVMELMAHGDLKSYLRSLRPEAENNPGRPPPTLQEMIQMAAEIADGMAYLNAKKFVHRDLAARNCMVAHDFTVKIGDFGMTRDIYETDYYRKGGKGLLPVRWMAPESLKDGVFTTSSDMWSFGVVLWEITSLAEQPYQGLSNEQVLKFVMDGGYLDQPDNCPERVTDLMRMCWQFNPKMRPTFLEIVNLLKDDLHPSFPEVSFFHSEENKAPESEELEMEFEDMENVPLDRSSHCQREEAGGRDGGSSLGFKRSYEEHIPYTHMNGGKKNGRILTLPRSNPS
# In short: as §1
# PKD1 = PKD1 (Homo sapiens, UniProt Q15139)
# In short: as §1
# BRSK2 = biological target: T3, BRSK2 (Homo sapiens, UniProt Q8IWQ3)
# T3 sequence (Q8IWQ3 1-736): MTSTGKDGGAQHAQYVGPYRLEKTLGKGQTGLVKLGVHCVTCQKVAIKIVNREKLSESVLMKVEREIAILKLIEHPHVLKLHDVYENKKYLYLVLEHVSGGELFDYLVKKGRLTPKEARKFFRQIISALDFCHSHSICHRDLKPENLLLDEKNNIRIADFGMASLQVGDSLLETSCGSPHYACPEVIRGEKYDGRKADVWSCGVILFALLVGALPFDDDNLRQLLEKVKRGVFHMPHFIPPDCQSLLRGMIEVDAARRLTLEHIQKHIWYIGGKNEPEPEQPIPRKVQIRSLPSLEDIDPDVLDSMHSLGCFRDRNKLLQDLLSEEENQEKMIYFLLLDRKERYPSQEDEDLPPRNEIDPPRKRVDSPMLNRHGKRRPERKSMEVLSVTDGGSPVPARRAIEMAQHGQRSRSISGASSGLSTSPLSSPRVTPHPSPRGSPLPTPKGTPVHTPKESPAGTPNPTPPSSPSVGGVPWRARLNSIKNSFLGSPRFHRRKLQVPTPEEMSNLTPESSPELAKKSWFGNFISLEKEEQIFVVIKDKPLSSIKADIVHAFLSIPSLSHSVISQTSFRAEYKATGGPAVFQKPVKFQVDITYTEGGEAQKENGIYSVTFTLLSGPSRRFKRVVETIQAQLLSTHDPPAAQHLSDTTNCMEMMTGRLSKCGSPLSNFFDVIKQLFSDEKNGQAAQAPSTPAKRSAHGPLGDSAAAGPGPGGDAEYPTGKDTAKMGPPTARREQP
# In short: as §1
# IRR = IRR (Homo sapiens, UniProt P14616)
# Chain of IRR (P14616 27-1297): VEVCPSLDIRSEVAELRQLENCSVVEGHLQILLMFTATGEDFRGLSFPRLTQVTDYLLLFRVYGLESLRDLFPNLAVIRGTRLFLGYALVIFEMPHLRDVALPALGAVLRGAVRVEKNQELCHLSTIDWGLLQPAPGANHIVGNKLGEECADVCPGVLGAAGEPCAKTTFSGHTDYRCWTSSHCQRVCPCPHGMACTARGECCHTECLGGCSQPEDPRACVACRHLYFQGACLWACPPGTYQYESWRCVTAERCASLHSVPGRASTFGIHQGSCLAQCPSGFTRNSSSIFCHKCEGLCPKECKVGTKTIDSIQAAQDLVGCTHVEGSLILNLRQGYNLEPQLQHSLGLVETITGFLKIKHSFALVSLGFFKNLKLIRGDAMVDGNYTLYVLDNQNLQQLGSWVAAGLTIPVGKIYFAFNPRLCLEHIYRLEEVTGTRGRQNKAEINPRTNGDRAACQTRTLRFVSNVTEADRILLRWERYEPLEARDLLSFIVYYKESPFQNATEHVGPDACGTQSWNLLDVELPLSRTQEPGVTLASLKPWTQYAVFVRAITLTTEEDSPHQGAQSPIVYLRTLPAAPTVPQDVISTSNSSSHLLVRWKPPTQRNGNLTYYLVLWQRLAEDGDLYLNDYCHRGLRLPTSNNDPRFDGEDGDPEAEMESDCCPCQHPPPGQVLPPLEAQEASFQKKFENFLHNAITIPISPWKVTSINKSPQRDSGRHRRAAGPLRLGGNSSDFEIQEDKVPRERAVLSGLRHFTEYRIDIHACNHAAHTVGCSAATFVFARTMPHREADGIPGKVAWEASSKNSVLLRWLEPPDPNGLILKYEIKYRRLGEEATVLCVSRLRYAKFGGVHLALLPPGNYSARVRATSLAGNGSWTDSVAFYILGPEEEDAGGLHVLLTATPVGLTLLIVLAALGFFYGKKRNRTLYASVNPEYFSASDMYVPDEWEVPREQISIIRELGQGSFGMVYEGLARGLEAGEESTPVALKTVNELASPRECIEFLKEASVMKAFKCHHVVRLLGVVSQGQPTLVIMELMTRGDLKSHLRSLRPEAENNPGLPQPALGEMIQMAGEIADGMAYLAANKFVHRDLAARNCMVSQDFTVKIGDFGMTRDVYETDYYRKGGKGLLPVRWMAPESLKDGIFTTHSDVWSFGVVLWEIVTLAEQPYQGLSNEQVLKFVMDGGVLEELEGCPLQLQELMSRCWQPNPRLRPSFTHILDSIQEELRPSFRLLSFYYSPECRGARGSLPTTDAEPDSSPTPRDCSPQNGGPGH
# In short: as §1
# MKK6 = MKK6 (Homo sapiens, UniProt P52564)
# Chain of MKK6 (P52564 whole entry): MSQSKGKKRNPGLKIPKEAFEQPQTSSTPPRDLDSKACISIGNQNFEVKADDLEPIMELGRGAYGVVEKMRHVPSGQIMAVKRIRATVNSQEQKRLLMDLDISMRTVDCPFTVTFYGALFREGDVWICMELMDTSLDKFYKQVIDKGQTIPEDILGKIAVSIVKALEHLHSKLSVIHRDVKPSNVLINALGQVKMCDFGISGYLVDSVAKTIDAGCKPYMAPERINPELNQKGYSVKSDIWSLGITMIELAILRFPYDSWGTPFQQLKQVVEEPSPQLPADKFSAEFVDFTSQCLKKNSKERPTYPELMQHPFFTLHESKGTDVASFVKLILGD
# In short: as §1
# TLK1 = TLK1 (Homo sapiens, UniProt Q9UKI8)
# Chain of TLK1 (Q9UKI8 whole entry): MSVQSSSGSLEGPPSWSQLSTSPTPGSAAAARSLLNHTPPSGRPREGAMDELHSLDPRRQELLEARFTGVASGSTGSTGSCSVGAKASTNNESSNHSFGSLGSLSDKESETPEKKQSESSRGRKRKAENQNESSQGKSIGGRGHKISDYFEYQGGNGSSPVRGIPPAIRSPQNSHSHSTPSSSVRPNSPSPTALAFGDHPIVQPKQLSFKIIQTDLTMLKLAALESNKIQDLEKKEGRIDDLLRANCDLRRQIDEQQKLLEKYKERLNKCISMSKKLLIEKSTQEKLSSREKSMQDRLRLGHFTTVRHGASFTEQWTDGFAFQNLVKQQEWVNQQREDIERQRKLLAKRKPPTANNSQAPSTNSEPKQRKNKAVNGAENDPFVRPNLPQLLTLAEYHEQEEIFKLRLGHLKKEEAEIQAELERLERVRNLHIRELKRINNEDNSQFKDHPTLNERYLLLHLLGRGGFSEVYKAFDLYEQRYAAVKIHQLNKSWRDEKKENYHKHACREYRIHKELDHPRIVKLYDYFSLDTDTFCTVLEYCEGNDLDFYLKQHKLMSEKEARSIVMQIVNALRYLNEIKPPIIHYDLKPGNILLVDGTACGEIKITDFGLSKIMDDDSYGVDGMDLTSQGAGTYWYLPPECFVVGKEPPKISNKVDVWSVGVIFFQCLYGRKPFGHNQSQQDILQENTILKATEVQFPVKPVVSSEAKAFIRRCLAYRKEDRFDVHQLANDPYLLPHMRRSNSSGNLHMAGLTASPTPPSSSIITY
# In short: as §1
# Lck = Lck (Homo sapiens, UniProt P06239)
# In short: as §1
# NEK6 = NEK6 (Homo sapiens, UniProt Q9HC98)
# In short: as §1
# MARK3 = MARK3 (Homo sapiens, UniProt P27448)
# Chain of MARK3 (P27448 whole entry): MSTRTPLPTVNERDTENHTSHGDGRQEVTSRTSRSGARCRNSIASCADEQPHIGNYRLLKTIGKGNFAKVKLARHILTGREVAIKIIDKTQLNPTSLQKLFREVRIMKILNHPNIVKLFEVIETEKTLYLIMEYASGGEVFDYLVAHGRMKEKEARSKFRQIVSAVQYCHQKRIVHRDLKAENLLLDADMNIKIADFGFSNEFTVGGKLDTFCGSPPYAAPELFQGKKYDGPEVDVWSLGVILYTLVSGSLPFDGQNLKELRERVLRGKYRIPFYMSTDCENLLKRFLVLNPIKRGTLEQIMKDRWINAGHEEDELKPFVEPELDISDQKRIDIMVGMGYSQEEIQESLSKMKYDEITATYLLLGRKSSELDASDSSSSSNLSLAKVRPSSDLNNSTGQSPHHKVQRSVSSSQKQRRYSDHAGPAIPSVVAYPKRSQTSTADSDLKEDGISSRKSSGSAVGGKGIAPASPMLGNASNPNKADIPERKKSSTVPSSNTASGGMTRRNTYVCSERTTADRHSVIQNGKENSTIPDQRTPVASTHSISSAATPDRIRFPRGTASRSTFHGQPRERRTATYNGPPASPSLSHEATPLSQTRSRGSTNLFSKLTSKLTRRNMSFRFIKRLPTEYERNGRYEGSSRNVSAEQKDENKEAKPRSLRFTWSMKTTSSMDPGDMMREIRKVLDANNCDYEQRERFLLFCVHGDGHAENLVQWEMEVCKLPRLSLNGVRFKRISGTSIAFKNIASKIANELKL
# In short: as §1
# [1] = 1 μM, cross-referenced with screen data of ref 37, read-out: activity remaining after treatment
SMILES,remaining activity at 0.1 µM (DAPK1) [%],inhibition at 0.1 µM (TBK1) [%],remaining activity at 0.1 µM (TBK1) [%],remaining activity at 0.1 µM (MST2) [%],remaining activity at 0.1 µM (IRAK4) [%],remaining activity at 1 µM (IRAK4; [1]) [%],remaining activity at 0.1 µM (PINK) [%],remaining activity at 0.1 µM (DYRK2) [%],remaining activity at 0.1 µM (IR) [%],"remaining activity at 1 µM (IR; 1 μM, INSR, cross-referenced with screen data of ref 37, read-out: activity remaining after treatment) [%]",remaining activity at 0.1 µM (PKD1) [%],remaining activity at 0.1 µM (BRSK2) [%],remaining activity at 1 µM (BRSK2; [1]) [%],remaining activity at 0.1 µM (IRR) [%],remaining activity at 0.1 µM (MKK6) [%],remaining activity at 0.1 µM (TLK1) [%],remaining activity at 0.1 µM (Lck) [%],remaining activity at 0.1 µM (NEK6) [%],remaining activity at 0.1 µM (MARK3) [%]
"CCc1ccccc1C(=O)Nc1n[nH]c2c(C)c(F)c(C3C(C#N)=C(C)N(C)C(C)=C3C#N)cc12 [BAY-3827, N-[5-(3,5-dicyano-1,2,6-trimethyl-4H-pyridin-4-yl)-6-fluoro-7-methyl-1H-indazol-3-yl]-2-ethylbenzamide]",94,~60,≤ 50,85,111,≥ 99,90,89,102,≥ 99,100,82,≤ 50,89,101,118,93,102,98
"CC1=C(C#N)C(c2ccc3c(c2)c(NC(=O)c2ccccc2C)nn3C)C(C#N)=C(C)N1 [BAY-974, N-[5-(3,5-dicyano-2,6-dimethyl-1,4-dihydropyridin-4-yl)-1-methylindazol-3-yl]-2-methylbenzamide]",109,–,91,94,92,–,95,79,81,–,84,112,–,88,94,100,58,85,80
